target: T1, streptavidin (Streptomyces avidinii, UniProt P22629); assay: Cy5-streptavidin binding on HotSpot discovery array, 5-mer L-peptide library; settings: 5-mer L-peptide library array, Cy5-streptavidin; from average of three arrays
T1 construct: purchased GE Healthcare (Little Chalfont, UK)
From the text: To identify hotspot sequences that bind to streptavidin (SA), we bound Cy5-SA to an array library of 2,476,099 5-mer L-peptides synthesized with 19 of 20 natural amino acids (excluding cysteine). The fluorescence signal intensity was aggregated across three independently synthesized arrays; then the 2,047 peptides with a signal-to-background ratio (S/B) >4 were selected. The data was further filtered to select 1,100 peptides for which signal intensities were highly correlated on all 3 arrays (the percentage of mean deviation to mean was <10%, see Supplementary dataset Table 2A). Most selected sequences (1,019 of 1,100) contained HP, PQ, or PM sequences: their presence would be expected in the well-known HPQ and HPM streptavidin binders[13]–[18].
The comprehensive peptide library included 2,476,099 5-mer peptides synthesized in a single copy with 19 of 20 L- or D-amino acids (excluding cysteine). Libraries were flanked on both N- and C-termini by linkers of 1 or 3 amino acids using a 3:1 glycine-serine mixture.
Cy5™-streptavidin (Cy5-SA) was purchased from GE Healthcare (Little Chalfont, UK). Freshly deprotected arrays were used in each experiment. Streptavidin binding to all arrays was performed with 0.5 µg/ml Cy5-SA either in binding buffer containing 10 mM Tris-HCl (pH 7.4), 1% alkali-soluble casein (EMD Millipore), 0.05% Tween-20 or in 10 mM Tris-HCl (pH 7.4), 4% BSA (Roche, Basel, Switzerland), 0.05% Tween-20 in a 30 mL PAP Jar container (Evergreen Scientific, Vernon, CA) overnight at 4° C. After incubation, arrays were washed in 20 mM Tris-HCl (pH 7.8), 0.2 M NaCl, 1% SDS or 1X TBS (pH 7.4) for 30 sec followed by a 1 min wash in water, and then dried by spinning in a microcentrifuge equipped with an array holder.
Cy5 fluorescence intensity of the arrays was measured with an MS200 scanner (Roche NimbleGen, Madison, WI) at resolution 2 µm, wavelength 635 nm, gain 25%, and laser intensity 100%. Cy5 signal intensities were extracted using Image Extraction Software (Roche NimbleGen). Data pre-processing, normalization, and statistical tests were performed using the language R. Data visualization and analysis was performed with the Spotfire 6.5.0 (Tibco, Boston, MA) software platform. Distance analysis and principle component analysis of distance matrices were performed with the R package PEPLIB[19].

T1 sequence (P22629 25-183): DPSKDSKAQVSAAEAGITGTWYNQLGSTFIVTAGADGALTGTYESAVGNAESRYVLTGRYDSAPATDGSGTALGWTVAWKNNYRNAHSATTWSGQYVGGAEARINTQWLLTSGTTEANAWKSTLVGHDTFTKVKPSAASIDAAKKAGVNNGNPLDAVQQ

Row | Substance | S/B (signal to background ratio)
1 | MVHPM | 33.8
2 | EQHPQ | 43.8
3 | AMHPM | 42.8
4 | AHPQG | 120.5
5 | HSHPQ | 136.9
6 | LAVYH [L-amino acid 5-mer array peptide] | 27.0
7 | EHPQV | 41.0
8 | GTHPQ | 132.9
9 | GHPMV | 21.8
10 | AFHPQ | 177.5
11 | PYHPQ | 151.0
12 | WHPQI | 41.5
13 | HPQAA | 43.7
14 | HHPQR | 35.2
15 | TPHPQ | 142.6
16 | MGHPQ | 175.3
17 | EEHPQ | 27.3
18 | HLHPM | 40.7
19 | VHPQF | 135.2
20 | SNHPQ | 144.9
21 | TAHPQ | 120.0
22 | PHPQI | 22.5

Row | Substance | S/B (signal to background ratio)
23 | PYHPM | 54.5
24 | HPQHG | 57.1
25 | KHPMA | 27.5
26 | IFHPQ | 166.8
27 | YHPQA | 168.4
28 | PFHPQ | 193.0
29 | MHPQA | 138.1
30 | THPQY | 30.1
31 | YHPMV | 20.3
32 | MEHPM | 23.4
33 | HPQWG | 26.9
34 | VYHPQ | 168.1
35 | IAHPM | 46.1
36 | WSHPM | 129.1
37 | APHPM | 38.6
38 | NHHPQ | 128.2
39 | PVHPM | 27.2
40 | YHPQK | 19.8
41 | WHPQA | 172.2
42 | GFHPQ | 181.0
43 | ERHPQ | 134.2
44 | PPHPQ | 150.0

Row | Substance | S/B (signal to background ratio)
45 | RKHPQ | 46.9
46 | SHPQF | 132.4
47 | NHPQM | 39.3
48 | RHPQF | 125.0
49 | WHPQS | 129.8
50 | LNHPQ | 152.2
51 | IPHPM | 35.9
52 | FHPMM | 24.3
53 | EPHPM | 23.1
54 | FHPQN | 168.8
55 | FHPMV | 27.2
56 | TYHPM | 50.6
57 | YIHPQ | 131.4
58 | LAQFH [L-amino acid 5-mer array peptide] | 39.7
59 | YWHPQ | 148.0
60 | LGHPQ | 171.2
61 | MYHPQ | 182.6
62 | FYHPQ | 202.7
63 | THPQH | 42.7
64 | YHPQG | 153.3

same assay, conditions: 5-mer L-peptide library array, Cy5-streptavidin; from the average of three arrays

Row | Substance | S/B (signal to background ratio)
65 | KLHPQ | 71.4
66 | RHPQN | 86.1
67 | YGHPM | 108.1
68 | HKHPQ | 86.4
69 | RHPQV | 94.3
70 | SIHPQ | 118.3
71 | AHPMA | 60.9
72 | FYHPM | 99.8
73 | MKHPQ | 84.7
74 | MPHPM | 58.7
75 | FEHPQ | 96.4
76 | NIHPQ | 100.3
77 | WHPMN | 67.3
78 | WWHPQ | 111.4
79 | KPHPQ | 117.2
80 | LDHPQ | 89.3
81 | KHPQN | 64.6
82 | HPQGN | 108.4
83 | VHPQG | 101.6
84 | HPQFA | 113.5
85 | FHPQM | 58.1
86 | QWHPM | 72.2
87 | HPQNW | 93.4
88 | HPQVG | 114.3
89 | HPQGD | 62.3
90 | DGHPQ | 62.6
91 | QFHPM | 77.7
92 | WVHPM | 78.5

same assay, conditions: 5-mer L-peptide library, from the average of three arrays

Row | Substance | S/B (signal to background ratio)
93 | HPMQF | 4.9
94 | MAFHF [L-amino acid 5-mer array peptide] | 4.8
95 | MGNHF [L-amino acid 5-mer array peptide] | 4.3
96 | IAAYH [L-amino acid 5-mer array peptide] | 4.8
97 | HPAFQ | 4.5
98 | FHPMW | 5.1
99 | FDDFL [L-amino acid 5-mer array peptide] | 5.0
100 | FMFMF [L-amino acid 5-mer array peptide] | 4.2
101 | NWEAI [L-amino acid 5-mer array peptide] | 4.1
102 | NWEAV [L-amino acid 5-mer array peptide] | 4.1

same assay, conditions: average of three arrays, L-peptide 5-mer library

Row | Substance | S/B (signal to background ratio)
103 | MAFHF [L-amino acid 5-mer array peptide] | 4.8
104 | LAVYH [L-amino acid 5-mer array peptide] | 27.0
105 | MVAHF [L-amino acid 5-mer array peptide] | 6.3
106 | MGNHF [L-amino acid 5-mer array peptide] | 4.3
107 | IAAYH [L-amino acid 5-mer array peptide] | 4.8
108 | MAKHF [L-amino acid 5-mer array peptide] | 5.4
109 | LSAYH [L-amino acid 5-mer array peptide] | 17.7
110 | FDDFL [L-amino acid 5-mer array peptide] | 5.0
111 | FDAWL [L-amino acid 5-mer array peptide] | 11.9
112 | MPGHF [L-amino acid 5-mer array peptide] | 5.6
113 | FMFMF [L-amino acid 5-mer array peptide] | 4.2
114 | LATFH [L-amino acid 5-mer array peptide] | 6.2
115 | LAQFH [L-amino acid 5-mer array peptide] | 39.7
116 | NWEAI [L-amino acid 5-mer array peptide] | 4.1
117 | NWEAV [L-amino acid 5-mer array peptide] | 4.1

same assay, conditions: signal to background ratio; 5-mer L-peptide library array, Cy5-streptavidin

Row | Substance | S/B
118 | THPMR | 8.7
119 | VHPMF | 9.9
120 | HPQHL | 9.2
121 | HPMMA | 5.3
122 | MVAHF [L-amino acid 5-mer array peptide] | 6.3
123 | QHPMH | 12.4
124 | GHPMM | 11.7
125 | WHPDW | 5.3
126 | YHPQI | 14.3
127 | HPQRF | 7.3
128 | HPMAQ | 7.2
129 | MAKHF [L-amino acid 5-mer array peptide] | 5.4
130 | IHPQT | 13.6
131 | HPQSI | 7.3
132 | HPQRS | 15.9
133 | GHPQK | 13.3
134 | LHPQW | 12.4

Row | Substance | S/B
135 | HPMNA | 17.1
136 | YHPMY | 12.0
137 | HPMRG | 9.3
138 | HPQHS | 18.1
139 | HPMPW | 8.2
140 | LSAYH [L-amino acid 5-mer array peptide] | 17.7
141 | HHPMM | 18.7
142 | HPMRN | 8.8
143 | PMPDE | 6.3
144 | SHPMY | 11.0
145 | EIHPM | 9.9
146 | FDAWL [L-amino acid 5-mer array peptide] | 11.9
147 | MPGHF [L-amino acid 5-mer array peptide] | 5.6
148 | LATFH [L-amino acid 5-mer array peptide] | 6.2
149 | DHPQT | 8.9
150 | GHPMY | 11.0
151 | DHPMY | 6.4
